{"source": "paper PMC3048764", "about": "(Brain research, 2010)", "key": {"[1]": {"tested_on": "SK-N-SH neuroblastoma cells", "settings": "up to 200 nM; ref Green et al. (1997b); cited from earlier work"}, "[2]": {"tested_on": "HT-22 (murine hippocampal) cells", "settings": "cited from earlier work"}, "[3]": {"tested_on": "HT-22 (murine hippocampal) cells", "settings": "cited from earlier work; for neuroprotection of non-phenolic estrogens, in words: all of the structure-activity studies; for neuroprotection against toxicity, in words: compared with βE2 or parent compound, ref Perez et al., 2005b"}, "uterine weights": {"tested_on": "uterine weights", "experiment": "Uterine weight", "settings": "1 day of exposure"}, "ERβ": {"tested_on": "ERβ", "settings": "competitive binding; ref Perez et al. (2005b); cited from earlier work"}, "[4]": {"tested_on": "HT-22 (murine hippocampal) cells", "format": "cell-based", "settings": "insult not named"}, "ERα": {"tested_on": "ERα", "settings": "competitive binding; ref Perez et al. (2005b); cited from earlier work"}, "[5]": {"tested_on": "lipid peroxidation in rat brain homogenates", "settings": "read-out: IC50 of lipid peroxidation seen by other groups; ref Hall et al., 1991; cited from earlier work"}, "HT-22 cells": {"tested_on": "HT-22 cells", "experiment": "DCF assay of reactive oxygen species, glucose oxidase insult", "format": "cell-based", "settings": "HT-22 cells insulted with glucose oxidase"}, "[6]": {"tested_on": "HT-22 (murine hippocampal) cells", "experiment": "Neuroprotection against glutamate toxicity, calcein-AM viability assay", "format": "cell-based", "settings": "10 μM concentration, paradigm of Behl's group (1997)"}}}
{"smiles": "CC(=O)[C@H]1CC[C@H]2[C@@H]3CCC4=CC(=O)CC[C@]4(C)[C@H]3CC[C@]12C", "note": "[progesterone]", "values": [{"measurement": "protection against serum deprivation", "setting": "[1]", "value": "did not find progesterone to be protectiive"}, {"measurement": "neuroprotection against glutamate insult", "setting": "[2]; 10 μM, ref Behl et al. (1997)", "value": "did not find 10 μM progestrone (P4) to be neuroprotective"}]}
{"smiles": "C#C[C@]1(O)CC[C@H]2[C@@H]3CCc4cc(OC5CCCC5)ccc4[C@H]3CC[C@@]21C", "note": "[quinestrol]", "values": [{"measurement": "neuroprotection of non-phenolic estrogens, in words", "setting": "[3]", "value": "did not have protect effects"}]}
{"smiles": "C[C@]12CC(O)[C@@H]3c4ccc(O)cc4CC[C@H]3[C@@H]1CCC2=O", "note": "(stereo partly shown) [Compound E1240]", "values": [{"measurement": "neuroprotection against toxicity, in words", "setting": "[3]", "value": "neuroprotection was completely abolished"}]}
{"smiles": "C[C@]12CC[C@@H]3c4ccc(O)cc4CC[C@H]3[C@@H]1CCC2=O", "note": "[Compound E1, estrone]", "values": [{"measurement": "increase of uterine weights", "setting": "uterine weights", "value": 71, "unit": "%"}]}
{"smiles": "C[C@]12CC[C@@H]3c4ccc(O)cc4CC[C@H]3[C@@H]1CC[C@@H]2OC(=O)c1ccccc1", "note": "[ZYC30]", "values": [{"measurement": "neuroprotection against toxicity, in words", "setting": "[3]", "value": "decreased the potency of the parent compound"}]}
{"smiles": "Cc1c(O)c(C23CC4CC(CC(C4)C2)C3)cc2c1CC[C@@H]1[C@@H]2CC[C@]2(C)C(=O)CC[C@@H]12", "note": "[ZYC26, 2-(1-adamantyl)-4-methylestrone]", "values": [{"measurement": "ERβ binding, in words", "setting": "ERβ", "value": "completely abolished the affinity"}, {"measurement": "fold decrease in EC50 for protection against neurotoxicity, first value", "setting": "[4]; first of two values given 'respectively'", "value": "approximately 9 fold"}, {"measurement": "fold decrease in EC50 for protection against neurotoxicity, second value", "setting": "[4]; second of two values given 'respectively'", "value": "~4", "unit": "fold"}, {"measurement": "ERα binding, in words", "setting": "ERα", "value": "completely abolished the affinity"}]}
{"smiles": "CCC(C)c1c(O)ccc2c1CC[C@@H]1[C@@H]2CC[C@]2(C)C(=O)CC[C@@H]12", "note": "(stereo partly shown) [ZYC17]", "values": [{"measurement": "ERβ binding, in words", "setting": "ERβ", "value": "completely inhibited estrogen receptor binding"}, {"measurement": "ERα binding, in words", "setting": "ERα", "value": "completely inhibited estrogen receptor binding"}]}
{"smiles": "CC12CCC3c4ccc(O)cc4CCC3C1CCC2O", "note": "(stereo not shown) [PS2]", "values": [{"measurement": "neuroprotection against toxicity, in words", "setting": "[3]", "value": "reduced neuroprotective potencies"}]}
{"smiles": "C[C@]12CC=C3c4ccc(O)cc4CC[C@H]3[C@@H]1CC[C@@H]2O", "note": "[ZYC1]", "values": [{"measurement": "ERβ binding, in words", "setting": "ERβ", "value": "did not drastically change the affinity"}, {"measurement": "ERα binding, in words", "setting": "ERα", "value": "did not drastically change the affinity"}]}
{"smiles": "C[C@]12CC[C@@H]3c4ccc(O)cc4CC[C@H]3[C@@H]1CC[C@H]2O", "note": "[αE2]", "values": [{"measurement": "ERβ binding, in words", "setting": "ERβ", "value": "less affinity"}, {"measurement": "ERα binding, in words", "setting": "ERα", "value": "less affinity"}]}
{"smiles": "C#C[C@]1(O)CC[C@H]2[C@@H]3CCc4cc(OC)ccc4[C@H]3CC[C@@]21C", "note": "[mestranol]", "values": [{"measurement": "neuroprotection of non-phenolic estrogens, in words", "setting": "[3]", "value": "did not have protect effects"}]}
{"smiles": "COc1cc2c(cc1C13CC4CC(CC(C4)C1)C3)[C@H]1CC[C@]3(C)[C@@H](O)CC[C@H]3[C@@H]1CC2", "note": "[ZYC23, 3-O-methyl analog of (17beta)-2-(1-adamantyl)estradiol]", "values": [{"measurement": "neuroprotection against toxicity, in words", "setting": "[3]", "value": "failed to protect cells against toxicity induced cell death"}]}
{"smiles": "C[C@]12CC[C@@H]3c4ccc(O)cc4CC[C@H]3[C@@H]1CC1(CCCC1)C2=O", "note": "[ZYC2]", "values": [{"measurement": "neuroprotection against toxicity, in words", "setting": "[3]", "value": "did not enhance neuroprotection"}]}
{"smiles": "CC(=O)[C@H]1CC[C@H]2[C@@H]3CC[C@@H]4C[C@H](O)CC[C@]4(C)[C@H]3CC[C@]12C", "note": "[pregnanolone]", "values": [{"measurement": "protection against glutamate insult at high dose", "setting": "[2]; 10 μM dose, ref Gursoy et al. (2001)", "value": "no protection"}, {"measurement": "concentration of optimal protection against glutamate insult", "setting": "[2]; ref Gursoy et al. (2001)", "value": 500, "unit": "nM"}]}
{"smiles": "C[C@]12CC[C@@H]3c4ccc(O)cc4CC[C@H]3[C@@H]1CC[C@@H]2O", "note": "[βE2, 17β-estradiol]", "values": [{"measurement": "IC50", "setting": "[5]", "value": 21, "unit": "µM"}, {"measurement": "decrease of ROS", "setting": "HT-22 cells", "value": "not able to significantly decrease ROS"}, {"measurement": "protection against glutamate toxicity at fixed concentration", "setting": "[6]", "value": "protective"}]}
